Assay results from patent US4861878A, “1H-pyrido-(2,3-b) (1,4)-thiazines” (Bayer Aktiengesellschaft, priority 1985, dated 1989).

Experiments:
[1] = target: T1, lipoxygenase (Rattus norvegicus, UniProt P12527); experiment: LTB4 release from rat polymorphonuclear leucocytes (PMNL) after calcium ionophore A 23187, by HPLC (lipoxygenase inhibition); type: cell-based, rat (Wistar)
T1 construct: Polymorphonuclear leucocytes from rats (PMNL) were obtained from the peritoneal space in Wistar rats; endogenous in cells; host or cells: peritoneal polymorphonuclear leucocytes of Wistar rats (elicited with sodium caseinate)
T1 sequence (P12527 1-673): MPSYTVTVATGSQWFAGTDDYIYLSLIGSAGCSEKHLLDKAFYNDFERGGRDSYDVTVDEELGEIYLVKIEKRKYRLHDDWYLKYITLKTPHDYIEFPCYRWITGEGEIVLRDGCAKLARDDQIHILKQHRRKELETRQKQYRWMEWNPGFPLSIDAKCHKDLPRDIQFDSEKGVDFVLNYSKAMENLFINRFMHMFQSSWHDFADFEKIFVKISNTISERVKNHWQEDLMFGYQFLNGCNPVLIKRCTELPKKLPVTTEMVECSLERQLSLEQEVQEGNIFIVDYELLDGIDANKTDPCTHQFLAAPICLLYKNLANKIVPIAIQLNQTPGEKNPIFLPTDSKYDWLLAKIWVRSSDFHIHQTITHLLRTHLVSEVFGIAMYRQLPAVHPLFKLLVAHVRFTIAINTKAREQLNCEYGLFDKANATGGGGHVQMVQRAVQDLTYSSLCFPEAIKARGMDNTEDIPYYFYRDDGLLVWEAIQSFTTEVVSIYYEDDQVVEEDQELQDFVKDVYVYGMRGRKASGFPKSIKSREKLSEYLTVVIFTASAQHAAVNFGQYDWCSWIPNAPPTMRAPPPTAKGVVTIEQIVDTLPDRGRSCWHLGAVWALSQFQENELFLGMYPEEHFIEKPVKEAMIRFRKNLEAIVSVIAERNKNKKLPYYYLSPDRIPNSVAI
Experimental: The release of LTB4 on polymorphonuclear granulocytes after addition of substances and calcium ionophor was determined by means of HPLC as a measure of the lipoxygenase inhibition.
The combined ether phases were washed with 4 ml of water (double distilled), dried while gassing with nitrogen and taken up in 80 μl of methanol.
20 μl of each of the samples thus prepared were applied to a pre-packed column (Nucleosil, type 7.5 C 18M 4×25 mm) and chromatographed at a flow rate of 1 ml/min (Kontron pump system 600), methanol, H2 O and acetic acid (75:25:0.01) being used as the mobile phase. Detection was at 280 nm (Uvicon 720 LC). The formation of the metabolite was quantified with the aid of the internal standard PG B2 as a quotient of the area integrals (Shimadzu C-R1B) of LTB4 to PGB2 and an inhibition was determined as a percentage of the controls.

[2] = tested on: leucocyte migration; experiment: Inhibition of leucocyte migration, small sponge impregnated with active compound under the skin on the backs of rats; type: in vivo; details: rat, local, 10 mg/rat, impregnated sponge under skin of back
Source text: The 1H-pyrido-[2,3-b][1,4]-thiazines according to the invention also have an in vivo action.
The action of a 1H-pyrido-[2,3-b][1,4]-thiazine after local administration by insertion of a small sponge impregnated with active compound under the skin on the backs of rats may be mentioned as examples.

| SMILES | IC50 [1] [µM] | Inhibition of leukotriene B4 biosynthesis, % inhibition ([1]; at 1·10^-5 (M/1), rat PMNL) [%] | Inhibition of Leucocyte migration (control = 0%) [2] [%] |
| --- | --- | --- | --- |
| COC(=O)C1=CNc2cccnc2S1 [Example 2] | 5 | – | – |
| O=C1CCCC2=C1Sc1ncccc1N2 | – | 42 | – |
| CCCCOC(=O)C1=CNc2cccnc2S1 [Example 4] | 0.055 | – | – |
| CCOC(=O)C1=CN(CC#N)c2cccnc2S1 [Example 19] | 2.6 | – | – |
| CCOC(=O)C1=CNc2cccnc2S1 [Example 1, 3-Ethoxycarbonyl-1H-pyrido[2,3-b][1,4]-thiazine] | 0.46 | – | 50 |
